The values below come from patent US20210317090A1, “AMINO ACID DEPLETION AGENTS AS ANTIPROLIFERATIVE AGENTS” (University of Central Florida Research Foundation, Inc., priority 2018, published 2021).

This test deals with CHO K1 cells. Put plainly: Cytotoxicity dose-response (MTS cell viability) in CHO K1 cells. It counts as cell-based, Chinese hamster. The protocol:
CHO K1 Studies. Wild type Chinese hamster ovary (CHO K1) cells were chosen to first study the synthetic compounds' impact on polyamine metabolism. The CHO K1 cell line has high polyamine transport activity and was useful in screening compounds for their polyamine transport inhibitor activity. A dose-response curve was obtained for each compound to determine their toxicity in CHO K1 cells after 48 h incubation. Compound 9 (1666.177) was non-toxic up to the highest dose tested (15 μM).
Regarding the biological studies performed in the following examples, it is noted that CHO K1, CHO-MG, and L3.6pl cells were grown in RPMI 1640 medium supplemented with 10% fetal bovine serum (FBS) and 1% penicillin/streptomycin. All cells were grown at 37° C. under a humidified 5% CO2 atmosphere. Aminoguanidine (1 mM used for CHO K1 and CHOMG cells and 250 μM for L3.6pl) was added to the growth medium to prevent oxidation of the compounds of the bovine serum amine oxidase enzyme that is present in calf serum. The cells used were in early to mid log phase and CHO and CHOMG were plated out at 1000 cells/well, whereas the L3.6pl cells were plated at 500 cells/well in a 96 well plate format.
This example illustrates aspects according to various embodiments pertaining to IC50 determinations and cell viability studies. Cell growth was assayed in sterile 96-well microtiter plates (Costar 3599, Corning, N.Y.). CHO K1 or CHOMG cells were plated at 1,000 cells/70 μL and L3.6pl cells at 500 cells/70 μL. The drug solutions of appropriate concentration in phosphate buffered saline (PBS) were added 10 μL per well after overnight incubation. After drug exposure (e.g., for 48 h for CHO K1 and CHO-MG and 48 h or 72 h for L3.6pl), cell growth was determined by measuring formazan formation from the 3-(4,5dimethylthiazol-2-yl)-5-(3-carboxymethoxyphenyl)-2-(4-sulfenyl)-2H tetrazolium, inner salt (MTS) using SynergyMx Biotek microplate reader for absorbance (490 nm) measurements.^27 All experiments were run in triplicate.

Turning to `CC(C)CCN1CCN(C(CNCc2ccccc2)CC2CCCCC2)CC1CC(C)C.Cl.Cl.Cl` (centres unmarked) [Compound 10, Benzyl-{3-cyclohexyl-2-[3-isobutyl-4-(3-methyl-butyl)-piperazin-1-yl]-propyl}-amine trihydrochloride salt], the “toxicity of compound alone” value (CHO K1, highest concentration tested (5 μM), 48 h) is “nontoxic”. Besides, the IC50 (Cricetulus griseus, CHO K1 cells, 48 h incubation) stood at 10.8 ± 0.22 µM.
